# Reference: US10004722B2, “Method for treating hepatic encephalopathy or a disease associated with free radical mediate stress and oxidative stress with novel functionalized 1,3-benzene diols” (KANNALIFE SCIENCES, INC., priority 2014, dated 2018)
# Several values for one entry are separate records, joined by “and”; a condition that tells them apart may be missing. Identical values can stand only once. Like-named read-outs stand apart in the source and are kept apart here.
# Legend:
# hippocampal cultures [1] = assay: Neuroprotection from 30 mM ethanol, CFDA assay; assay type: cell-based; details: Rattus norvegicus, read-out: NP from Ethanol CFDA EC50
# Procedure: Cell cultures: All compounds were screened with dissociated hippocampal cultures derived from embryonic day 18 rats as the primary test system. […] The hippocampal neurons were platted at low density (10,000 cell/well) in a 96-well format and maintained in serum-free medium consisting of Neurobasal Medium supplemented with B27 and GlutaMAX (Gibco).
# The effective working concentration of ethanol that was empirically determined to produce toxicity in the hippocampal cultures was 30 mM.
# Carboxyfluorescein (CFDA) was used a vital stain for all neuroprotection studies. With the use of the CytoFluor fluorimeter, the CFDA assay was employed to assess the viability of neurons. […] Cultures were treated within the period of culture vulnerability for toxins relevant to HE: between days 11 and 22 after cell plating. The test agents were evaluated with the two assays during a 5 hour test period. For all assays, a 96-well format was used. […] Cultures were given a complete change of medium prior to the initiation of the treatment period.
# A compound of the disclosure was added to the hippocampal cultures for a five hour period. Compounds were tested from 10 nM to 100 μM. At the conclusion of the test period, the cultures were tested for the amount of neuronal viability by the CFDA method. […]
# hippocampal cultures [2] = assay: cells; assay type: cell-based; details: Rattus norvegicus, 30 mM ethanol, propidium iodide, read-out: NP from Ethanol PI EC50
# Excerpt: Cell cultures: All compounds were screened with dissociated hippocampal cultures derived from embryonic day 18 rats as the primary test system. With this preparation, primary neurons were used to test for toxicity as well as neuroprotection in a highly relevant experimental system to hepatic encephalopathy (HE). In brief, hippocampal tissue was obtained commercially through Brain Bits (Springfield, Ill.) and cultures prepared as previously described (Brewer, 1995). The hippocampal neurons were platted at low density (10,000 cell/well) in a 96-well format and maintained in serum-free medium consisting of Neurobasal Medium supplemented with B27 and GlutaMAX (Gibco). […]
# These studies use phenotypic assays of neuroprotection because the molecular target(s) mediating the action of cannabidiol-like protecting substances is unknown. […] Further, all time parameters employed in these studies were empirically determined to be within the limits of reversible toxic events after treatment with cannabidiol (Hamelink et al., 2005) and cannabidiol-like substances, yet using amounts of ethanol (30 mM) and ammonia (300 μM ammonium acetate) that were relevant to the disease. […]
# Carboxyfluorescein (CFDA) was used a vital stain for all neuroprotection studies. […] The test agents were evaluated with the two assays during a 5 hour test period. […]
# [3] = Pharmacokinetic profile after an IV dose in CD1 mice; assay type: in vivo
# Procedure: (§1) The pharmacokinetic profile of compounds of the disclosure are determined in CD1 mice by administering IV and PO doses of the compounds of the disclosure to the CD1 mice. Plasma samples are drawn at 0.083, 0.25, 0.5, 1.0, 2.0, 4.0, 8.0, and 24 hours to determine the plasma concentration of the compounds of the disclosure. Brain and CSF samples were collected at 0.25 hours, 2 hours, and 8 hours post dosing. IV doses were prepared as solutions in 5% Dimethylacetamide (DMAC), 5% Solutol HS 15 and 90% Saline at 0.4 mg/mL PO doses were prepared as solutions in 5% Dimethylacetamide (DMAC), 5% Solutol HS 15 and 90% Saline at 1 mg/mL. Experimental results for exemplary compounds of the disclosure are described in tables 6-9 and FIGS. 1 and 2.
# in vivo = assay: in vivo; parameters: species or system CD1 mice
# Procedure: as §1
# hippocampal cultures [4] = assay: cells; assay type: cell-based; details: Rattus norvegicus, 300 μM ammonium acetate, propidium iodide, read-out: NP from AmAc PI EC50
# Excerpt: (§2) Cell cultures: All compounds were screened with dissociated hippocampal cultures derived from embryonic day 18 rats as the primary test system. With this preparation, primary neurons were used to test for toxicity as well as neuroprotection in a highly relevant experimental system to hepatic encephalopathy (HE). In brief, hippocampal tissue was obtained commercially through Brain Bits (Springfield, Ill.) and cultures prepared as previously described (Brewer, 1995). The hippocampal neurons were platted at low density (10,000 cell/well) in a 96-well format and maintained in serum-free medium consisting of Neurobasal Medium supplemented with B27 and GlutaMAX (Gibco). Pre-coated poly-D-lysine coated plates will be used because of the adherence and survival of hippocampal neurons and glia on this matrix support.
# (§3) The central objective of all neuroprotective assays was their relevancy to oxidative stress related to HE and other or diseases associated with oxidative stress in general. These studies use phenotypic assays of neuroprotection because the molecular target(s) mediating the action of cannabidiol-like protecting substances is unknown. Both the amount of ethanol and ammonia used in the assays, as well as the time of treatment and duration of the experiment, were designed to be relevant to HE (Ong et al, 2003). […]
# hippocampal cultures [5] = assay: Neuroprotection from 30 mM ethanol plus 300 μM ammonium acetate, propidium iodide (PI) assay; assay type: cell-based; details: Rattus norvegicus, read-out: NP from ethanol + AmAc PI EC50
# Excerpt: as §2, §3
# hippocampal cultures [6] = assay: Neuroprotection from 30 mM ethanol plus 300 μM ammonium acetate, CFDA assay; assay type: cell-based; details: Rattus norvegicus, read-out: NP from ethanol + AmAc CFDA EC50
# Excerpt: as §2, §3
# hippocampal cultures [7] = assay: Neuroprotection from 300 μM ammonium acetate, CFDA assay; assay type: cell-based; details: Rattus norvegicus, read-out: NP from AmAc CFDA EC50
# Excerpt: as §2, §3
# [8] = CD1, mouse, in vivo, iv, 2 mg/kg
# [9] = CD1, mouse, in vivo, po, 10 mg/kg
# [10] = PO 10 mg/kg, CD1 mice, 0.25 hr, listed as KLS-13019, 10 mg/kg
# [11] = PO 10 mg/kg, CD1 mice, 2 hr, listed as KLS-13019, 10 mg/kg
compound,measurement,setting,value
"C=C(C)[C@@H]1CCC(C)=C[C@H]1c1c(O)cc(CC2CN(C(C)=O)C2)cc1O [Example 2, 1-(3-(3,5-dihydroxy-4-((1R,6R)-3-methyl-6-(prop-1-en-2-yl)cyclohex-2-enyl)benzyl)azetidin-1-yl)ethanone]",EC50,hippocampal cultures [1],175 nM
same,EC50,hippocampal cultures [2],46 nM
same,AUC(0-inf),[3]; [8],440 ng·h/mL
same,AUC(0-t),[3]; [8],431 ng·h/mL
same,MRT inf,[3]; [8],42.1 min
same,Vd,[3]; [8],3.19 L/kg
same,clearance,[3]; [8],75.8 mL/min/kg
same,half-life,"[3]; mouse, plasma, IV 2 mg/kg, CD1 mice, read-out: Terminal t1/2 (converted)",194 min
same,Tmax,in vivo; [9],15 min
same,half-life,in vivo; [9],319 min
same,concentration at 0.25 h,"in vivo; CD1, mouse, in vivo, po, 10 mg/kg, PO 10 mg/kg, CD1 mice, 0.25 hr, read-out: Brain concentration, mean",469 ng/mL
same,Kp at 0.25 h,"in vivo; CD1, mouse, in vivo, po, 10 mg/kg, PO 10 mg/kg, CD1 mice, 0.25 hr, read-out: Brain/Plasma (%), individual",0.801
same,Kp at 0.25 h,"in vivo; CD1, mouse, in vivo, po, 10 mg/kg, PO 10 mg/kg, CD1 mice, 0.25 hr, read-out: Brain/Plasma (%), mean",0.821
same,concentration at 0.25 h,"in vivo; CD1, mouse, in vivo, po, 10 mg/kg, PO 10 mg/kg, CD1 mice, 0.25 hr, read-out: CSF concentration, mean",8.95 ng/mL
same,Kp at 0.25 h,"in vivo; CD1, mouse, in vivo, po, 10 mg/kg, PO 10 mg/kg, CD1 mice, 0.25 hr, read-out: CSF/Plasma (%), individual",0.0179
same,Kp at 0.25 h,"in vivo; CD1, mouse, in vivo, po, 10 mg/kg, PO 10 mg/kg, CD1 mice, 0.25 hr, read-out: CSF/Plasma (%), mean",0.0155
same,concentration at 2 h,"in vivo; CD1, mouse, in vivo, po, 10 mg/kg, PO 10 mg/kg, CD1 mice, 2 hr, read-out: Brain concentration, mean",126 ng/mL
same,Kp at 2 h,"in vivo; CD1, mouse, in vivo, po, 10 mg/kg, PO 10 mg/kg, CD1 mice, 2 hr, read-out: Brain/Plasma (%), individual",1.15
same,Kp at 2 h,"in vivo; CD1, mouse, in vivo, po, 10 mg/kg, PO 10 mg/kg, CD1 mice, 2 hr, read-out: Brain/Plasma (%), mean",1.17
same,concentration at 2 h,"in vivo; CD1, mouse, in vivo, po, 10 mg/kg, PO 10 mg/kg, CD1 mice, 2 hr, read-out: CSF concentration, mean",2.65 ng/mL
same,Kp at 2 h,"in vivo; CD1, mouse, in vivo, po, 10 mg/kg, PO 10 mg/kg, CD1 mice, 2 hr, read-out: CSF/Plasma (%), individual",0.0255
same,Kp at 2 h,"in vivo; CD1, mouse, in vivo, po, 10 mg/kg, PO 10 mg/kg, CD1 mice, 2 hr, read-out: CSF/Plasma (%), mean",0.0291
same,F,"in vivo; CD1, mouse, po, 10 mg/kg",67.1%
same,Tmax,"in vivo; CD1, mouse, po, 10 mg/kg",15 min
same,half-life,"in vivo; CD1, mouse, po, 10 mg/kg",322 min
same,"Brain/CSF, mean","in vivo; PO 10 mg/kg, CD1 mice, 0.25 hr",53.5
same,"Brain/CSF, individual",in vivo; [10],44.7 and 61.3 and 54.6
same,"Brain/Plasma (%), individual",in vivo; [10],87.4% and 78.7%
same,"CSF/Plasma (%), individual",in vivo; [10],1.42% and 1.44%
same,"Brain/CSF, mean","in vivo; PO 10 mg/kg, CD1 mice, 2 hr",43.7
same,"Brain/CSF, individual",in vivo; [11],45.0 and 60.3 and 25.9
same,"Brain/Plasma (%), individual",in vivo; [11],136% and 101%
same,"CSF concentration, individual",in vivo; [11],3.60 ng/mL and 3.00 ng/mL and 1.35 ng/mL
same,"CSF/Plasma (%), individual",in vivo; [11],2.26% and 3.91%
same,"Brain concentration, individual","in vivo; PO 10 mg/kg, CD1 mice, 8 hr",BQL
same,"Brain concentration, mean","in vivo; PO 10 mg/kg, CD1 mice, 8 hr",BQL
same,"Brain/Plasma (%), mean","in vivo; PO 10 mg/kg, CD1 mice, 8 hr",BQL
same,"CSF concentration, individual","in vivo; PO 10 mg/kg, CD1 mice, 8 hr",BQL
same,"CSF concentration, mean","in vivo; PO 10 mg/kg, CD1 mice, 8 hr",BQL
same,"CSF/Plasma (%), mean","in vivo; PO 10 mg/kg, CD1 mice, 8 hr",BQL
same,EC50,hippocampal cultures [4],38 nM
same,EC50,hippocampal cultures [5],203 nM
same,EC50,hippocampal cultures [6],127 nM
same,EC50,hippocampal cultures [7],61 nM
"C=C(C)[C@@H]1CCC(C)=C[C@H]1c1c(O)cc(CC2CN(C(=O)OCC)C2)cc1O [Example 3, ethyl 3-(3,5-dihydroxy-4-((1R,6R)-3-methyl-6-(prop-1-en-2-yl)cyclohex-2-enyl)benzyl)azetidine-1-carboxylate]",EC50,hippocampal cultures [1],30 nM
same,EC50,hippocampal cultures [2],20 nM
same,EC50,hippocampal cultures [4],50 nM
same,EC50,hippocampal cultures [5],61 nM
same,EC50,hippocampal cultures [6],87 nM
same,EC50,hippocampal cultures [7],105 nM
